# Results taken from patent US7795220B2, “Conformationally constrained parathyroid hormones with alpha-helix stabilizers” (The General Hospital Corporation, priority 2003, dated 2010).
# Non-standard residues stand in square brackets, D forms with d. Residues, ends and D or L forms follow the SMILES beside them. hArg = N=C(N)NCCCC[C@H](N)C(=O)O; Ac5c = NC1(C(=O)O)CCCC1; Aib = CC(C)(N)C(=O)O
# Experiments:
# hP1R-delNt = target: T1, hP1R-delNt (Homo sapiens, UniProt Q03431); assay: cAMP stimulation in LdelNt-2 cells; format: cell-based
# T1 construct: expressed in transfected cells
# T1 sequence (Q03431 with tags, fused parts or gaps limits assumed): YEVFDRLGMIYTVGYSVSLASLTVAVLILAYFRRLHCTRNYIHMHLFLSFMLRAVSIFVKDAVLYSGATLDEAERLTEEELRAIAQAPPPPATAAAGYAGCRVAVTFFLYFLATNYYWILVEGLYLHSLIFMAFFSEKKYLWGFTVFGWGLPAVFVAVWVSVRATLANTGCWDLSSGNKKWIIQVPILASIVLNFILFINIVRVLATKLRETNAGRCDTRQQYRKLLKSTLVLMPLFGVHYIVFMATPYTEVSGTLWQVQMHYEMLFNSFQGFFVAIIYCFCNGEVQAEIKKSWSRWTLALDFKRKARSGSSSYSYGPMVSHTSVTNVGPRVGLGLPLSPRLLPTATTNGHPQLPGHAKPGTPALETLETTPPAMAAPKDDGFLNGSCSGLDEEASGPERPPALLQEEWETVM
# Source text: Cell Culture. The cell line HKRK-B28 (Takasu, H., et al., J. Bone Miner. Res. 14:11-20 (1999)) was derived from the porcine kidney cell line, LLC-PK1 by stable transfection with plasmid DNA encoding a recombinant P1R chimera comprised of the opposum P1R from the N-terminus to the mid region of TM3 and the rat P1R from the mid region of TM3 to the C-terminus. The surface density of the P1R in these cells is ˜280,000 receptors per cell. The clonal cell line LdelNt-2 was derived from LLC-PK, cells via stable transfection with a plasmid encoding P1R-delNt, a recombinant human PTH-1 receptor construct in which most of the amino-terminal extracellular domain is deleted. These cells, as well as COS-7 cells and SaOS-2-B10 cells, were cultured at […] in T-75 flasks ([…]) in Dulbecco's modified Eagle's medium (DMEM) supplemented with fetal bovine serum (10%), penicillin G (20 units/ml), streptomycin sulfate (20 μg/ml) and amphotericin B (0.05 μg/ml) in a humidified atmosphere containing 5% CO2. Stock solutions of EGTA/trypsin and antibiotics were from GLBCO; fetal bovine serum was from Hyclone Laboratories (Logan, Utah). COS-7 cells sub-cultured in 24-well plates were transfected with plasmid DNA (200 ng per well) encoding the wild-type human P1R or truncated human P1R deleted for residues (24-181) (Shimizu, M., et al., J. Biol. Chem. 275:21836-21843 (2000)) that was purified by cesium chloride/ethidium bromide density gradient centrifugation, and FuGENE 6 transfection reagent (Roche Indianapolis Ind.) according to the manufacturer's recommended procedure. All cells, in 24-well plates, were treated with fresh media and shifted to 33° C. for 12 to 24 h prior to assay.
# cAMP Stimulation. Stimulation of cells with peptide analogs was performed in 24-well plates. Cells were rinsed with 0.5 mL of binding buffer (50 mM Tris-HCl, 100 mM NaCl, 5 mM KCl, 2 mM CaCl2, 5% heat-inactivated horse serum, 0.5% fetal bovine serum, adjusted to pH 7.5 with HCl) and treated with 200 μL of cAMP assay buffer (Delbecco's modified Eagle's medium containing 2 mM 3-isobutyl-1-methylxanthine, 1 mg/mL bovine serum albumin, 35 mM Hepes-NaOH, pH 7.4) and 100 μL of binding buffer containing varying amounts of peptide analog (final volume=300 μL). The medium was removed after incubation for 30 to 60 minutes at room temperature, and the cells were frozen on dry ice, lysed with 0.5 mL 50 mM HCl, and refrozen ([…]). The cAMP content of the diluted lysate was determined by radioimmunoassay. The EC50 response values were calculated using nonlinear regression (see below).
# Data Calculation. Calculations were performed using Microsoft® Excel. Nonlinear regression analyses of binding and cAMP dose-response data were performed using the four-parameter equation: yp=Min+[(Max−Min)/(1+(IC50/x)^slope)]. The Excel Solver function was utilized for parameter optimization, as described previously (Carter, P. H., et al., Endocrinology 140: 4972-4981 (1999); Bowen, W. P., and Jerman, J. C., Trends in Pharmacol. Sci. 16: 413-417 (1995)). Differences between paired data sets were statistically evaluated using a one-tailed Student's t-test, assuming unequal variances for the two sets.
# Agonist activities of selected analogs in cells expressing P1R-delNt were examined. This PTH-1 receptor construct lacks most of the N domain, but nevertheless mediates full agonist responses to N-terminally modified PTH analogs, and thus enables the relative roles of the receptor's N and J domains to the ligand interaction process to be evaluated. The clonal cell line LdelNT-2 was used, which was derived from LLC-PK, cells by stable transfection with a plasmid encoding the human P1R-delNt construct.
# hP1R = target: T2, hP1R (Homo sapiens, UniProt Q03431); assay: Stimulation of inositol phosphate production / phospholipase C in COS-7 cells; format: cell-based
# T2 construct: expressed in transfected cells; host or cells: COS-7, transient transfection (FuGENE 6)
# T2 sequence (Q03431 27-593): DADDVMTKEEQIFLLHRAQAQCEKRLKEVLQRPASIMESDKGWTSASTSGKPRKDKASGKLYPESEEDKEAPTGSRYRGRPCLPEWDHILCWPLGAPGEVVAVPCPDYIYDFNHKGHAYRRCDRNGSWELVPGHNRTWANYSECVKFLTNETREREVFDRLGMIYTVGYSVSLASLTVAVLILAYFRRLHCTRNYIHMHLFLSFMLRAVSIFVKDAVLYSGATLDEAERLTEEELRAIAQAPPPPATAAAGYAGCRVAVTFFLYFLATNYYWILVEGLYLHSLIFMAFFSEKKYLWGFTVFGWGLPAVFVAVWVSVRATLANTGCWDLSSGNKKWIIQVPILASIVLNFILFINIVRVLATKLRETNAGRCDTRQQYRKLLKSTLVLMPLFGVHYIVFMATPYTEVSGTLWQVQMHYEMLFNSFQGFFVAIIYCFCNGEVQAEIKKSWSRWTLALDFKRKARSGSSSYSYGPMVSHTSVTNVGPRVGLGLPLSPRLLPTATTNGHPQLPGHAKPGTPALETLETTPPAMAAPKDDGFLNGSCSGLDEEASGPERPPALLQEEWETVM
# Source text: Cell Culture. The cell line HKRK-B28 (Takasu, H., et al., J. Bone Miner. Res. 14:11-20 (1999)) was derived from the porcine kidney cell line, LLC-PK1 by stable transfection with plasmid DNA encoding a recombinant P1R chimera comprised of the opposum P1R from the N-terminus to the mid region of TM3 and the rat P1R from the mid region of TM3 to the C-terminus. The surface density of the P1R in these cells is ˜280,000 receptors per cell. The clonal cell line LdelNt-2 was derived from LLC-PK, cells via stable transfection with a plasmid encoding P1R-delNt, a recombinant human PTH-1 receptor construct in which most of the amino-terminal extracellular domain is deleted. These cells, as well as COS-7 cells and SaOS-2-B10 cells, were cultured at […] in T-75 flasks ([…]) in Dulbecco's modified Eagle's medium (DMEM) supplemented with fetal bovine serum (10%), penicillin G (20 units/ml), streptomycin sulfate (20 μg/ml) and amphotericin B (0.05 μg/ml) in a humidified atmosphere containing 5% CO2. […]
# Stimulation of Inositol Phosphate Production. […] The lysate was then applied to an ion exchange column (0.5 mL resin bed) and the total inositol phosphates were eluted as described previously (Berridge, M. J., et al., Biochem. J. 212:473-482 (1983)), and counted in liquid scintillation cocktail.
smiles,measurement,setting,value
"CC[C@H](C)[C@H](NC(=O)[C@H](CCC(=O)O)NC(=O)C(C)(C)NC(=O)[C@@H](NC(=O)C1(N)CCCC1)C(C)C)C(=O)N[C@@H](CCC(N)=O)C(=O)N[C@@H](CC(C)C)C(=O)N[C@@H](CCSC)C(=O)N[C@@H](Cc1c[nH]cn1)C(=O)N[C@@H](CCC(N)=O)C(=O)N[C@@H](CCCCNC(=N)N)C(=O)N[C@@H](C)C(=O)N[C@@H](CCCCN)C(=O)N[C@@H](Cc1c[nH]c2ccccc12)C(N)=O [[Ac5c^1,Aib^3,M]PTH(1-14), [Ac5c^1,Aib^3,Gln^10,Har^11,Ala^12,Trp^14]PTH(1-14)NH2] (H-[Ac5c]V[Aib]EIQLMHQ[hArg]AKW-NH2)",EC50,hP1R-delNt,6.4 ± 2.3 nM
same,increase in cAMP accumulation (Emax) over basal,hP1R-delNt,70 fold
same,maximum cAMP response,hP1R-delNt,125±19 picomoles of cAMP per well
same,"potency for stimulating phospholipase C relative to [Aib1,3,M]PTH(1-14)",hP1R,2 fold
